According to PMC7531004, “Discovery of gramicidin A analogues with altered activities by multidimensional screening of a one-bead-one-compound library” (Nature Communications, 2020):
Where a SMILES comes first, the peptide text is derived from it. [ ]: non-standard residue; d: D form. The star is where a group is joined. NHCH2CH2OH = OCCN*; For = O=C*

How the values were obtained:
[1] = H+/Na+ transport assay of bead-derived peptides (one-point); type: biochemical; parameters: key: relative activity; mean of two control wells = 1.00; settings: bead-derived peptide solution, EYPC/EYPG LUVs;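 also: relative to parent gramicidin A activity set to 1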
Procedure, shortened: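 One-point screen: peptide + pyranine-loaded LUVs, 30 min RT with vortexing, 96-well. Read-out is fluorescence intensity scaled as 100 × (Ix – I0)/(Imax – I0). Imax from Triton X-100, I0 from untreated vesicles, and the mean of the two control wells is set to 1.00.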

[2] = system: P388 mouse leukemia cells; settings: 92 h
Procedure, shortened: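 P388 cells at 1 × 10^4 cells/mL (final) were exposed to library peptides (stocks diluted 250-fold in RPMI1640/10% FBS) for 92 h at 37 °C, 5% CO2. Viable cells were counted by WST-1/1-methoxy PMS (4 h), absorbance 415 nm, and expressed as cell viability (%).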

[3] = system: Streptococcus pyogenes SSI-9; test: Antibacterial activity assay of bead-derived peptides (three concentrations); type: cell-based; parameters: key: +++: inhibition by the 640-fold diluted peptide solution; ++: inhibition by the 160-fold diluted solution; +: inhibition by the 40-fold diluted solution; -: no inhibition; settings: S. pyogenes, bead-derived peptide solution, three concentrations
Procedure, shortened: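 Undiluted, 4-fold and 16-fold DMSO-diluted peptide stocks; S. pyogenes SSI-9, 2 × 10^5 CFU, cation-adjusted MHB (50 mg/L Ca2+, 25 mg/L Mg2+) + 5% laked horse blood; 37 °C, 18 h; readout = cell pellet visible or not.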

SMILES | H+/Na+ transport activity normalized against the value of 1 (1.00) [1] | cell viability/% [2] | antibacterial activity [3]
CC(C)C[C@@H](NC(=O)[C@H](C)NC(=O)CNC(=O)[C@@H](NC=O)C(C)C)C(=O)N[C@@H](C)C(=O)N[C@@H](C(=O)N[C@H](C(=O)N[C@H](CC(C)C)C(=O)N[C@@H](Cc1c[nH]c2ccccc12)C(=O)N[C@@H](C(=O)N[C@@H](Cc1c[nH]c2ccccc12)C(=O)N[C@H](CC(C)C)C(=O)N[C@@H](Cc1c[nH]c2ccccc12)C(=O)N[C@@H](C(=O)N[C@@H](Cc1c[nH]c2ccccc12)C(=O)NCCO)C(C)C)C(C)C)C(C)C)C(C)C [compound 3633] (For-VGA[dL]A[dV]V[dL]W[dV]W[dL]W[dV]W-NHCH2CH2OH) | 1.04 | 1.7% | -
CNC(=O)C[C@@H](NC(=O)[C@@H](NC(=O)[C@H](NC(=O)[C@H](C)NC(=O)[C@@H](CC(C)C)NC(=O)[C@H](C)NC(=O)CNC(=O)[C@@H](NC=O)C(C)C)C(C)C)C(C)C)C(=O)N[C@@H](Cc1c[nH]c2ccccc12)C(=O)N[C@@H](C(=O)N[C@@H](Cc1c[nH]c2ccccc12)C(=O)N[C@H](CC(C)C)C(=O)N[C@@H](Cc1c[nH]c2ccccc12)C(=O)N[C@H](CC(C)C)C(=O)N[C@@H](Cc1c[nH]c2ccccc12)C(=O)NCCO)C(C)C [compound 3584] (For-VGA[dL]A[dV]V[dD](NHMe)W[dV]W[dL]W[dL]W-NHCH2CH2OH) | 1.22 | 100.0% | -
CNC(=O)C[C@@H](NC(=O)[C@@H](NC(=O)[C@@H](CC(C)C)NC(=O)[C@H](C)NC(=O)[C@@H](CC(C)C)NC(=O)[C@H](C)NC(=O)CNC(=O)[C@@H](NC=O)C(C)C)C(C)C)C(=O)N[C@@H](Cc1c[nH]c2ccccc12)C(=O)N[C@H](CC(C)C)C(=O)N[C@@H](Cc1c[nH]c2ccccc12)C(=O)N[C@H](CC(C)C)C(=O)N[C@@H](Cc1c[nH]c2ccccc12)C(=O)N[C@@H](C(=O)N[C@@H](Cc1c[nH]c2ccccc12)C(=O)NCCO)C(C)C [compound 5491] (For-VGA[dL]A[dL]V[dD](NHMe)W[dL]W[dL]W[dV]W-NHCH2CH2OH) | 1.24 | 100.0% | -
CC(C)C[C@@H](NC(=O)[C@H](C)NC(=O)[C@H](NC(=O)[C@H](C)NC(=O)CNC(=O)[C@@H](NC=O)C(C)C)C(C)C)C(=O)N[C@H](C(=O)N[C@@H](C(=O)N[C@@H](Cc1c[nH]c2ccccc12)C(=O)N[C@@H](C(=O)N[C@@H](Cc1c[nH]c2ccccc12)C(=O)N[C@@H](C(=O)N[C@@H](Cc1c[nH]c2ccccc12)C(=O)N[C@H](CC(C)C)C(=O)N[C@@H](Cc1c[nH]c2ccccc12)C(=O)NCCO)C(C)C)C(C)C)[C@H](C)O)C(C)C [compound 11143] (For-VGA[dV]A[dL]V[dT]W[dV]W[dV]W[dL]W-NHCH2CH2OH) | 1.19 | 63.4% | -
CNC(=O)C[C@@H](NC(=O)[C@@H](NC(=O)[C@@H](CC(C)C)NC(=O)[C@H](C)NC(=O)[C@@H](CC(C)C)NC(=O)[C@H](C)NC(=O)CNC(=O)[C@@H](NC=O)C(C)C)C(C)C)C(=O)N[C@@H](Cc1c[nH]c2ccccc12)C(=O)N[C@H](CC(C)C)C(=O)N[C@@H](Cc1c[nH]c2ccccc12)C(=O)N[C@@H](C(=O)N[C@@H](Cc1c[nH]c2ccccc12)C(=O)N[C@H](CC(C)C)C(=O)N[C@@H](Cc1c[nH]c2ccccc12)C(=O)NCCO)C(C)C [compound 1479] (For-VGA[dL]A[dL]V[dD](NHMe)W[dL]W[dV]W[dL]W-NHCH2CH2OH) | 1.19 | 100.0% | -
CC(C)C[C@@H](NC(=O)[C@H](C)NC(=O)CNC(=O)[C@@H](NC=O)C(C)C)C(=O)N[C@@H](C)C(=O)N[C@H](CC(C)C)C(=O)N[C@H](C(=O)N[C@@H](C(=O)N[C@@H](Cc1c[nH]c2ccccc12)C(=O)N[C@@H](C(=O)N[C@@H](Cc1c[nH]c2ccccc12)C(=O)N[C@H](CC(C)C)C(=O)N[C@@H](Cc1c[nH]c2ccccc12)C(=O)N[C@H](CC(C)C)C(=O)N[C@@H](Cc1c[nH]c2ccccc12)C(=O)NCCO)[C@H](C)O)[C@H](C)O)C(C)C [compound 4421] (For-VGA[dL]A[dL]V[dT]W[dT]W[dL]W[dL]W-NHCH2CH2OH) | 1.12 | 100.0% | -
CC(C)C[C@@H](NC(=O)[C@H](Cc1c[nH]c2ccccc12)NC(=O)[C@H](NC(=O)[C@H](Cc1c[nH]c2ccccc12)NC(=O)[C@H](NC(=O)[C@H](Cc1c[nH]c2ccccc12)NC(=O)[C@H](NC(=O)[C@@H](NC(=O)[C@H](NC(=O)[C@H](C)NC(=O)[C@H](NC(=O)[C@H](C)NC(=O)CNC(=O)[C@@H](NC=O)C(C)C)C(C)C)[C@H](C)O)C(C)C)C(C)C)C(C)C)C(C)C)C(=O)N[C@@H](Cc1c[nH]c2ccccc12)C(=O)NCCO [compound 9058] (For-VGA[dV]A[dT]V[dV]W[dV]W[dV]W[dL]W-NHCH2CH2OH) | 1.14 | 58.0% | -
CNC(=O)C[C@@H](NC(=O)[C@@H](NC(=O)[C@@H](CC(C)C)NC(=O)[C@H](C)NC(=O)[C@@H](CC(C)C)NC(=O)[C@H](C)NC(=O)CNC(=O)[C@@H](NC=O)C(C)C)C(C)C)C(=O)N[C@@H](Cc1c[nH]c2ccccc12)C(=O)N[C@H](CC(C)C)C(=O)N[C@@H](Cc1c[nH]c2ccccc12)C(=O)N[C@H](CC(C)C)C(=O)N[C@@H](Cc1c[nH]c2ccccc12)C(=O)N[C@@H](C(=O)N[C@@H](Cc1c[nH]c2ccccc12)C(=O)NCCO)[C@H](C)O [compound 638] (For-VGA[dL]A[dL]V[dD](NHMe)W[dL]W[dL]W[dT]W-NHCH2CH2OH) | 1.01 | 100.0% | -
CC(C)C[C@@H](NC(=O)[C@H](C)NC(=O)CNC(=O)[C@@H](NC=O)C(C)C)C(=O)N[C@@H](C)C(=O)N[C@H](CC(C)C)C(=O)N[C@H](C(=O)N[C@H](CC(C)C)C(=O)N[C@@H](Cc1c[nH]c2ccccc12)C(=O)N[C@@H](C(=O)N[C@@H](Cc1c[nH]c2ccccc12)C(=O)N[C@@H](C(=O)N[C@@H](Cc1c[nH]c2ccccc12)C(=O)N[C@@H](C(=O)N[C@@H](Cc1c[nH]c2ccccc12)C(=O)NCCO)C(C)C)C(C)C)[C@H](C)O)C(C)C [compound 4532] (For-VGA[dL]A[dL]V[dL]W[dT]W[dV]W[dV]W-NHCH2CH2OH) | 1.11 | 100.0% | -
CC(C)C[C@@H](NC(=O)[C@H](C)NC(=O)CNC(=O)[C@@H](NC=O)C(C)C)C(=O)N[C@@H](C)C(=O)N[C@@H](C(=O)N[C@H](C(=O)N[C@@H](C(=O)N[C@@H](Cc1c[nH]c2ccccc12)C(=O)N[C@@H](C(=O)N[C@@H](Cc1c[nH]c2ccccc12)C(=O)N[C@@H](C(=O)N[C@@H](Cc1c[nH]c2ccccc12)C(=O)N[C@H](CC(C)C)C(=O)N[C@@H](Cc1c[nH]c2ccccc12)C(=O)NCCO)C(C)C)C(C)C)C(C)C)C(C)C)C(C)C [compound 9223] (For-VGA[dL]A[dV]V[dV]W[dV]W[dV]W[dL]W-NHCH2CH2OH) | 1.03 | 100.0% | +
CC(C)C[C@@H](NC(=O)[C@H](Cc1c[nH]c2ccccc12)NC(=O)[C@H](NC(=O)[C@H](Cc1c[nH]c2ccccc12)NC(=O)[C@@H](CC(C)C)NC(=O)[C@H](Cc1c[nH]c2ccccc12)NC(=O)[C@@H](CC(C)C)NC(=O)[C@@H](NC(=O)[C@H](NC(=O)[C@H](C)NC(=O)[C@H](NC(=O)[C@H](C)NC(=O)CNC(=O)[C@@H](NC=O)C(C)C)C(C)C)C(C)C)C(C)C)[C@H](C)O)C(=O)N[C@@H](Cc1c[nH]c2ccccc12)C(=O)NCCO [compound 10516] (For-VGA[dV]A[dV]V[dL]W[dL]W[dT]W[dL]W-NHCH2CH2OH) | 1.10 | 100.0% | -
CC(C)C[C@@H](NC(=O)[C@H](C)NC(=O)[C@H](NC(=O)[C@H](C)NC(=O)CNC(=O)[C@@H](NC=O)C(C)C)C(C)C)C(=O)N[C@H](C(=O)N[C@@H](C(=O)N[C@@H](Cc1c[nH]c2ccccc12)C(=O)N[C@H](CC(C)C)C(=O)N[C@@H](Cc1c[nH]c2ccccc12)C(=O)N[C@@H](C(=O)N[C@@H](Cc1c[nH]c2ccccc12)C(=O)N[C@H](CC(C)C)C(=O)N[C@@H](Cc1c[nH]c2ccccc12)C(=O)NCCO)[C@H](C)O)C(C)C)C(C)C [compound 11374] (For-VGA[dV]A[dL]V[dV]W[dL]W[dT]W[dL]W-NHCH2CH2OH) | 1.07 | 45.1% | +
CC(C)C[C@@H](NC(=O)[C@H](C)NC(=O)[C@H](NC(=O)[C@H](C)NC(=O)CNC(=O)[C@@H](NC=O)C(C)C)C(C)C)C(=O)N[C@H](C(=O)N[C@@H](C(=O)N[C@@H](Cc1c[nH]c2ccccc12)C(=O)N[C@H](CC(C)C)C(=O)N[C@@H](Cc1c[nH]c2ccccc12)C(=O)N[C@@H](C(=O)N[C@@H](Cc1c[nH]c2ccccc12)C(=O)N[C@@H](C(=O)N[C@@H](Cc1c[nH]c2ccccc12)C(=O)NCCO)C(C)C)C(C)C)C(C)C)C(C)C [compound 8697] (For-VGA[dV]A[dL]V[dV]W[dL]W[dV]W[dV]W-NHCH2CH2OH) | 1.04 | 100.0% | +
